This is an account of results in patent US20260014232A1, “Pharmaceutical Composition of GLP-1 and GIP Receptor Dual Agonist and Use Thereof” (Jiangsu Hengrui Pharmaceuticals Co., Ltd., priority 2021, published 2026).

A short description of data set [1]: Stability of compounds in human plasma (LC-MS). Format: in vitro ADME.
Description: 5 μL of each of samples at concentrations of 20 ng/ml, 50 ng/ml, 100 ng/ml, 200 ng/ml, 500 ng/mL, 1000 ng/mL, 2000 ng/mL, 5000 ng/mL, and 10000 ng/mL was added to 45 μL of human plasma. The content of the compounds in the samples was determined by the LC-MS method and a standard curve was formed. 5 μL of a 1 mg/mL polypeptide solution was added to 45 μL of human plasma. […] With the content at 0 min as the standard (100%), the relative content of the retained compounds in the samples at other time points was calculated.
Data set [2] in a line: Blood glucose in normal mice after single subcutaneous administration and intraperitoneal glucose. Format: in vivo, C57BL/6 mice. The following applies: for Blood glucose: glucose i.p. 18 h later, mean ± SD. The protocol:
18 h later, a glucose solution at a concentration of 0.2 g/mL was intraperitoneally injected. Blood glucose values were measured by collecting blood from the tail of mice at time points of 0 min, 15 min, 30 min, 60 min, and 120 min according to the experimental design. The specific procedures were as follows: the mouse was physically immobilized with the tail exposed, a little part was cut off at the tail end, then the tail was squeezed to bleed, and blood glucose was determined using a Roche active glucometer after the 1st drop of blood was discarded. The area under the blood glucose curve (AUC) was calculated from the results of all time points.

Data set [3] is described as follows: Body weight of diet-induced-obesity mice after subcutaneous administration. In kind it is in vivo, C57BL/6 mice. The conditions noted are these: induced-obesity mice, 10 nmol/kg. The protocol:
High-fat food-induced-obesity male C57BL/6 mice (weighing 35-55 g, aged 10-12 weeks, purchased from Shanghai Jiesijie Laboratory Animal Co., Ltd.) were tested. […] According to the experimental design, the body weight of each mouse was measured and recorded on day 0, day 3, day 6, and so on to day 27, the average body weight of each group of mice was calculated, and body weight change curves were plotted by taking the body weight on the first day as the standard. At the end, the fat and other visceral organs of each part of the mice were taken out and weighed, and the viscera/brain ratio for fat in each part of each mouse was calculated. The effect of the drug on the fat was determined by comparing the change in the viscera/brain ratio for fat of different parts of each group of mice.

For data set [4], the target named is human glucagon-like peptide-1 receptor (GLP-1R) (human, UniProt P43220 24-463). Description: cell-based or functional assay.
Data set [5] concerns the target T1, human glucose-dependent insulinotropic polypeptide receptor (GIPR) (human, UniProt P48546 22-466).
T1 sequence (looked up): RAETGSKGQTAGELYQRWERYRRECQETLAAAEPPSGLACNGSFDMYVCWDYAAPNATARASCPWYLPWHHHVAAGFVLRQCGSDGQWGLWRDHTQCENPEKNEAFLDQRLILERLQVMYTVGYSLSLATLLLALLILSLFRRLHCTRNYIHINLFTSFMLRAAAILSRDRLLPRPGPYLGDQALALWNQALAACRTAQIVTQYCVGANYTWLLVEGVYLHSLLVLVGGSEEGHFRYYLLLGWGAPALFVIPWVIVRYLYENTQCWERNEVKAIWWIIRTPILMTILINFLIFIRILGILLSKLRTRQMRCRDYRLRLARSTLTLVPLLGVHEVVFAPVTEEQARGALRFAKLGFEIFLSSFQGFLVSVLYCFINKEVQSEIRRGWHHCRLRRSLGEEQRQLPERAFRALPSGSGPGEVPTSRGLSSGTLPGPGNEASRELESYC
Description: cell-based or functional assay.

Starred links: 1 amine or outer side, 2 acyl side, 3 side chain; linkers in the order of their positions; H or OH if unused. Non-standard residues stand in square brackets, D forms with d. Residues, ends and D or L forms follow the SMILES beside them. Groups on a side chain read outwards from the residue. No end group written: not given here. *: point of attachment. C20 diacid = O=C(O)CCCCCCCCCCCCCCCCCCC(=O)*; Arachidoyl = CCCCCCCCCCCCCCCCCCCC(=O)*; γGlu = O=C(O)[C@H](CCC(=O)[*:2])N[*:1]; AEEA = NCCOCCOCC(=O)O; Aib = CC(C)(N)C(=O)O

With `CC[C@H](C)[C@H](NC(=O)[C@H](CCCCN)NC(=O)[C@H](CC(=O)O)NC(=O)[C@H](CCCCNC(=O)COCCOCCNC(=O)COCCOCCNC(=O)CC[C@H](NC(=O)CCCCCCCCCCCCCCCCCCC(=O)O)C(=O)O)NC(=O)[C@H](Cc1ccc(O)cc1)NC(=O)[C@@H](NC(=O)[C@H](CO)NC(=O)[C@H](Cc1ccc(O)cc1)NC(=O)[C@H](CC(=O)O)NC(=O)[C@H](CO)NC(=O)[C@@H](NC(=O)[C@H](Cc1ccccc1)NC(=O)[C@@H](NC(=O)CNC(=O)[C@H](CCC(=O)O)NC(=O)C(C)(C)NC(=O)[C@@H](N)Cc1ccc(O)cc1)[C@@H](C)O)[C@@H](C)O)[C@@H](C)CC)C(=O)N[C@@H](C)C(=O)N[C@@H](C)C(=O)N[C@@H](CCC(N)=O)C(=O)N[C@@H](CCC(=O)O)C(=O)N[C@@H](Cc1ccccc1)C(=O)N[C@H](C(=O)N[C@@H](CC(N)=O)C(=O)N[C@@H](Cc1c[nH]c2ccccc12)C(=O)N[C@@H](CC(C)C)C(=O)N[C@@H](CC(C)C)C(=O)N[C@@H](C)C(=O)NCC(=O)NCC(=O)N1CCC[C@H]1C(=O)N[C@@H](CO)C(=O)N[C@@H](CO)C(=O)NCC(=O)N[C@@H](C)C(=O)N1CCC[C@H]1C(=O)N1CCC[C@H]1C(=O)N1CCC[C@H]1C(=O)N[C@@H](CO)C(N)=O)C(C)C` [Compound 7#] (H-Y[Aib]EGTFTSDYSIYK([AEEA-AEEA-γGlu-C20 diacid])DKIAAQEFVNWLLAGGPSSGAPPPS-NH2), the “Relative content of compounds retained in plasma” value in data set [1] (0 min) was determined as 100.00%; in data set [1] (240 min) it was 102.15%. For the same molecule, the “area under the blood glucose curve reduced compared with placebo” value in data set [2] (10 nmol/kg) is reported as “more than 60%”. In addition, in data set [2] (10 nmol/kg s.c., 0-120 min), the “AUC (area under the blood glucose curve)” value stood at 10.7 ± 1.8 mmol·h/L. The Blood glucose stood at 4.4 ± 0.8 mmol/L in data set [2] (10 nmol/kg s.c., 0 min); 6.7 ± 0.8 mmol/L in data set [2] (10 nmol/kg s.c., 15 min); 6.2 ± 1.3 mmol/L in data set [2] (10 nmol/kg s.c., 30 min); 5.7 ± 1.2 mmol/L in data set [2] (10 nmol/kg s.c., 60 min); 3.8 ± 1.1 mmol/L in data set [2] (10 nmol/kg s.c., 120 min). Besides, the Body weight change in data set [3] (Day 1, mean ± SD) is reported as 0%; in data set [3] (Day 4, mean ± SD), −11.0 ± 1.0%; in data set [3] (Day 7, mean ± SD), −17.6 ± 2.6%; in data set [3] (Day 10, mean ± SD), −22.6 ± 5.9%; in data set [3] (Day 13, mean ± SD), −22.3 ± 6.3%; in data set [3] (Day 16, mean ± SD) it was −22.7 ± 6.9%. For the same molecule, the Body weight change is on record as −25.9 ± 6.2% in data set [3] (Day 19, mean ± SD); −23.9 ± 5.6% in data set [3] (Day 22, mean ± SD); −23.9 ± 5.6% in data set [3] (Day 25, mean ± SD); −25.5 ± 5.3% in data set [3] (Day 28, mean ± SD).
Turning to Y[Aib]EGTFTSDYSIYK([AEEA-AEEA-γGlu-Arachidoyl])DKIAAQEFVNWLLAGGPSSGAPPPS-NH2 [compound 7#], in data set [4], the “Activity against human GLP-1R (EC50 nM); cAMP HTRF, CHO-K1/GLP-1R/CRE-luc cells” value came to 0.021 nM. Besides, in data set [5], the “Activity against human GIPR (EC50 nM); cAMP HTRF, CHO-K1 cells overexpressing hGIP receptor” value came out at 0.11 nM.
